Experimental data: ChEMBL document CHEMBL1137563, “3,5-bis(3'-indolyl)pyrazoles, analogues of marine alkaloid nortopsentin: synthesis and antitumor properties” (2007)
Active and inactive are the calls of the source. The rule behind the calls is not given here.

Assays:
[1] = target: DNA topoisomerase 2-alpha (Homo sapiens) (UniProt P11388); assay: Inhibition of human recombinant topoisomerase 2-mediated relaxation of supercoiled plasmid pBR322 DNA at 8 uM
UACC-257 = assay: Antitumor activity against UACC257 cells; format: functional; conditions: Homo sapiens
M14 = assay: Antitumor activity against M14 cells; format: functional; conditions: Homo sapiens
NCI-H322M = assay: Antitumor activity against NCI-H322M cells; format: functional; conditions: Homo sapiens
HCC 2998 = assay: Antitumor activity against HCC2998 cells; format: functional; conditions: Homo sapiens
MDA-MB-231 = assay: Antitumor activity against MDA-MB-231 cells; format: functional; conditions: Homo sapiens
CCRF-CEM = assay: Antitumor activity against CCRF-CEM cells; format: functional; conditions: Homo sapiens
HCT-15 = assay: Antitumor activity against HCT15 cells; format: functional; conditions: Homo sapiens
U-251 = assay: Antitumor activity against U251 cells; format: functional; conditions: Homo sapiens
SF-295 = assay: Antitumor activity against SF295 cells; format: functional; conditions: Homo sapiens
TK-10 = assay: Antitumor activity against TK10 cells; format: functional; conditions: Homo sapiens
SW-620 = assay: Antitumor activity against SW620 cells; format: functional; conditions: Homo sapiens
SNB-19 = assay: Antitumor activity against SNB19 cells; format: functional; conditions: Homo sapiens
OVCAR-4 = assay: Antitumor activity against OVCAR4 cells; format: functional; conditions: Homo sapiens
786-0 = assay: Antitumor activity against 7860 cells; format: functional; conditions: Homo sapiens
T47D = assay: Antitumor activity against T47D cells; format: functional; conditions: Homo sapiens
EKVX = assay: Antitumor activity against EKVX cells; format: functional; conditions: Homo sapiens
NCI/ADR-RES = assay: Antitumor activity against NCI/ADRRES cells; format: functional; conditions: Homo sapiens
A498 = assay: Antitumor activity against A498 cells; format: functional; conditions: Homo sapiens
NCI-H460 = assay: Antitumor activity against NCI-H460 cells; format: functional; conditions: Homo sapiens
ACHN = assay: Antitumor activity against ACHN cells; format: functional; conditions: Homo sapiens
SK-MEL-2 = assay: Antitumor activity against SK-MEL-2 cells; format: functional; conditions: Homo sapiens
SK-MEL-28 = assay: Antitumor activity against SK-MEL-28 cells; format: functional; conditions: Homo sapiens
NCI-H226 = assay: Antitumor activity against NCI-H226 cells; format: functional; conditions: Homo sapiens
MDA-MB-435 = assay: Antitumor activity against MDA-MB-435 cells; format: functional; conditions: Homo sapiens
SR = assay: Antitumor activity against SR cells; format: functional; conditions: Homo sapiens
MOLT-4 = assay: Antitumor activity against MOLT4 cells; format: functional; conditions: Homo sapiens
HOP-92 = assay: Antitumor activity against HOP92 cells; format: functional; conditions: Homo sapiens
IGROV-1 = assay: Antitumor activity against IGROV1 cells; format: functional; conditions: Homo sapiens
RPMI-8226 = assay: Antitumor activity against RPMI8226 cells; format: functional; conditions: Homo sapiens
CAKI-1 = assay: Antitumor activity against CAKI1 cells; format: functional; conditions: Homo sapiens
UACC-62 = assay: Antitumor activity against UACC62 cells; format: functional; conditions: Homo sapiens
HT-29 = assay: Antitumor activity against HT29 cells; format: functional; conditions: Homo sapiens
K562 = assay: Antitumor activity against K562 cells; format: functional; conditions: Homo sapiens
HOP-62 = assay: Antitumor activity against HOP62 cells; format: functional; conditions: Homo sapiens
UO-31 = assay: Antitumor activity against UO31 cells; format: functional; conditions: Homo sapiens
Hs-578T = assay: Antitumor activity against HS578T cells; format: functional; conditions: Homo sapiens
A549 = assay: Antitumor activity against A549 cells; format: functional; conditions: Homo sapiens
SF-268 = assay: Antitumor activity against SF268 cells; format: functional; conditions: Homo sapiens
OVCAR-3 = assay: Antitumor activity against OVCAR-3 cells; format: functional; conditions: Homo sapiens
SNB-75 = assay: Antitumor activity against SNB75 cells; format: functional; conditions: Homo sapiens
SF-539 = assay: Antitumor activity against SF539 cells; format: functional; conditions: Homo sapiens
KM12 = assay: Antitumor activity against KM12 cells; format: functional; conditions: Homo sapiens
SK-OV-3 = assay: Antitumor activity against SKOV3 cells; format: functional; conditions: Homo sapiens
DU-145 = assay: Antitumor activity against DU145 cells; format: functional; conditions: Homo sapiens
PC-3 = assay: Antitumor activity against PC3 cells; format: functional; conditions: Homo sapiens
[2] = Antitumor activity against HL60(TB) cells; format: functional, HL-60(TB); conditions: Homo sapiens, HL-60
OVCAR-8 = assay: Antitumor activity against OVCAR8 cells; format: functional; conditions: Homo sapiens
MCF7 = assay: Antitumor activity against MCF7 cells; format: functional; conditions: Homo sapiens
BT-549 = assay: Antitumor activity against BT549 cells; format: functional; conditions: Homo sapiens
SK-MEL-5 = assay: Antitumor activity against SK-MEL-5 cells; format: functional; conditions: Homo sapiens
HCT-116 = assay: Antitumor activity against HCT116 cells; format: functional; conditions: Homo sapiens
RXF 393 = assay: Antitumor activity against RXF393 cells; format: functional; conditions: Homo sapiens
NCI-H522 = assay: Antitumor activity against NCI-H522 cells; format: functional; conditions: Homo sapiens
LOX IMVI = assay: Antitumor activity against LOX-IMVI cells; format: functional; conditions: Homo sapiens
NCI-H23 = assay: Antitumor activity against NCI-H23 cells; format: functional; conditions: Homo sapiens
COLO 205 = assay: Antitumor activity against COLO205 cells; format: functional; conditions: Homo sapiens
[3] = target: DNA topoisomerase 2-alpha (Homo sapiens) (UniProt P11388); assay: Inhibition of human recombinant topoisomerase 2-mediated relaxation of supercoiled plasmid pBR322 DNA at 100 uM
Malme-3M = assay: Antitumor activity against MALME-3M cells; format: functional; conditions: Homo sapiens
OVCAR-5 = assay: Antitumor activity against OVCAR5 cells; format: functional; conditions: Homo sapiens
SN12C = assay: Antitumor activity against SN12C cells; format: functional; conditions: Homo sapiens
[4] = target: DNA topoisomerase 2-alpha (Homo sapiens) (UniProt P11388); assay: Inhibition of human recombinant topoisomerase 2-mediated relaxation of supercoiled plasmid pBR322 DNA at 50 uM
[5] = read-out: LC50 (the source's name)

Sequence of DNA topoisomerase 2-alpha (Homo sapiens) (P11388 whole entry): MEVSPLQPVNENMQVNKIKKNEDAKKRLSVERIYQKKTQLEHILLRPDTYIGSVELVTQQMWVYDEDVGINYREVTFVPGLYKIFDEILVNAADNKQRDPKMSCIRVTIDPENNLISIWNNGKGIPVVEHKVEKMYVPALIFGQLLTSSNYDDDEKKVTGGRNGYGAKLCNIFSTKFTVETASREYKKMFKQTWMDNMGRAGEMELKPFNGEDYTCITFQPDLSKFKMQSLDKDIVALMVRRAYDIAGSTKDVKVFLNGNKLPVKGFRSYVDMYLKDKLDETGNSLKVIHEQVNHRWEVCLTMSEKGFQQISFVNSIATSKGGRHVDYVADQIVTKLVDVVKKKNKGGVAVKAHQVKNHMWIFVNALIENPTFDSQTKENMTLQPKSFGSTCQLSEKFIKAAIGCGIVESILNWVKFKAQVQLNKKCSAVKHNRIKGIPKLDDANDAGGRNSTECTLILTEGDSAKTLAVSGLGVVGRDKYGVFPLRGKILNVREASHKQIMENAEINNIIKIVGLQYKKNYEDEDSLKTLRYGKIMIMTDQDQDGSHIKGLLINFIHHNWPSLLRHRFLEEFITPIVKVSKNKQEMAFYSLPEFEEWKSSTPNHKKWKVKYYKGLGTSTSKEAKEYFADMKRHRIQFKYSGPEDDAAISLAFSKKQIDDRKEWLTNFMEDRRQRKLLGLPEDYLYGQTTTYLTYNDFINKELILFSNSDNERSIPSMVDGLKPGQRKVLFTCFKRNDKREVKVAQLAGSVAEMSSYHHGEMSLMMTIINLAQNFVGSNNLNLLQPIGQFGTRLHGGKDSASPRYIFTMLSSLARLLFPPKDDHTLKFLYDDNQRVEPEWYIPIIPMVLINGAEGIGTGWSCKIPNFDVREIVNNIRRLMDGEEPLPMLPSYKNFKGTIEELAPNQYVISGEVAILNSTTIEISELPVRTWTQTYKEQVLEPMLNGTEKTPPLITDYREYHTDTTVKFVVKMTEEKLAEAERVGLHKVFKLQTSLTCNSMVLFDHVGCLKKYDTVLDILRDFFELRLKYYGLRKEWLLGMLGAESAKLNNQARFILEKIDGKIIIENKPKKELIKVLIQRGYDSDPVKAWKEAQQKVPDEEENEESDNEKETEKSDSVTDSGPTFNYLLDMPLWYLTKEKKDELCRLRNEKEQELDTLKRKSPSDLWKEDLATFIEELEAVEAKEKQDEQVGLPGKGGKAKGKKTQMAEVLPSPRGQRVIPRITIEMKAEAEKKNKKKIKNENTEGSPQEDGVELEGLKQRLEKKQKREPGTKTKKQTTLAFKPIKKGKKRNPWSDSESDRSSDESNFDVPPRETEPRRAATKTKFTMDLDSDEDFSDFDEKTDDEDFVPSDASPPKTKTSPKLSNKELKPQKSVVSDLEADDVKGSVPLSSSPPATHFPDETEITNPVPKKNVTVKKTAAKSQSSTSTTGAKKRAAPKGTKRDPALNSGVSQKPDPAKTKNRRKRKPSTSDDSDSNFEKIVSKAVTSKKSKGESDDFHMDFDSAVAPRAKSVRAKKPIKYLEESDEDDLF

SMILES: COc1cc(NS(C)(=O)=O)ccc1Nc1c2ccccc2nc2ccccc12
- Activity [1]: Active

SMILES: Cn1cc(-c2cc(-c3cn(C)c4ccc(Cl)cc34)[nH]n2)c2cc(Cl)ccc21
- GI50 (UACC-257): 4.27 µM
- GI50 (M14): 2.15 µM
- GI50 (NCI-H322M): 5.73 µM
- GI50 (HCC 2998): 1.71 µM
- TGI (HCC 2998): 3.84 µM
- CC50 (HCC 2998; [5]): 8.63 µM
- GI50 (MDA-MB-231): 2.95 µM
- GI50 (CCRF-CEM): 6.4 µM
- GI50 (HCT-15): 3.01 µM
- GI50 (U-251): 3.37 µM
- GI50 (SF-295): 2.52 µM
- GI50 (TK-10): 5.16 µM
- GI50 (SW-620): 3.52 µM
- GI50 (SNB-19): 4.09 µM
- GI50 (OVCAR-4): 5.82 µM
- GI50 (786-0): 3.41 µM
- GI50 (T47D): 4.06 µM
- GI50 (EKVX): 3.15 µM
- GI50 (NCI/ADR-RES): 2.25 µM
- GI50 (A498): 2.44 µM
- GI50 (NCI-H460): 2.35 µM
- GI50 (ACHN): 3.23 µM
- GI50 (SK-MEL-2): 2.34 µM
- GI50 (SK-MEL-28): 4.8 µM
- GI50 (NCI-H226): 5.29 µM
- GI50 (MDA-MB-435): 2.99 µM
- GI50 (SR): 2.36 µM
- GI50 (MOLT-4): 1.55 µM
- GI50 (HOP-92): 1.86 µM
- GI50 (IGROV-1): 2.55 µM
- GI50 (RPMI-8226): 6.79 µM
- GI50 (CAKI-1): 1.7 µM
- GI50 (UACC-62): 1.63 µM
- GI50 (HT-29): 3.57 µM
- GI50 (K562): 2.78 µM
- GI50 (HOP-62): 7.98 µM
- GI50 (UO-31): 3.01 µM
- GI50 (Hs-578T): 3.27 µM
- GI50 (A549): 3.24 µM
- GI50 (SF-268): 5.29 µM
- GI50 (OVCAR-3): 4.41 µM
- GI50 (SNB-75): 4.25 µM
- GI50 (SF-539): 1.81 µM
- TGI (SF-539): 3.47 µM
- CC50 (SF-539; [5]): 6.62 µM
- GI50 (KM12): 3.45 µM
- GI50 (SK-OV-3): 5.81 µM
- GI50 (DU-145): 9.6 µM
- GI50 (PC-3): 3.05 µM
- GI50 [2]: 4.45 µM
- GI50 (OVCAR-8): 4.03 µM
- GI50 (MCF7): 2.64 µM
- GI50 (BT-549): 2.03 µM
- GI50 (SK-MEL-5): 1.79 µM
- GI50 (HCT-116): 3.82 µM
- GI50 (RXF 393): 3.03 µM
- GI50 (NCI-H522): 1.75 µM
- GI50 (LOX IMVI): 1.7 µM
- TGI (LOX IMVI): 3.8 µM
- CC50 (LOX IMVI; [5]): 8.53 µM
- GI50 (NCI-H23): 2.49 µM
- GI50 (COLO 205): 2.22 µM
- Activity [3]: Active
- GI50 (Malme-3M): 9.64 µM
- GI50 (OVCAR-5): 3.11 µM

SMILES: Cn1cc(-c2cc(-c3cn(C)c4ccccc34)[nH]n2)c2ccccc21
- GI50 (UACC-257): 80.6 µM
- GI50 (M14): > 100 µM
- GI50 (NCI-H322M): > 100 µM
- GI50 (HCC 2998): 4.74 µM
- GI50 (MDA-MB-231): 8.06 µM
- GI50 (CCRF-CEM): 14.4 µM
- GI50 (HCT-15): 8.68 µM
- GI50 (U-251): 12.9 µM
- GI50 (SF-295): 17.1 µM
- GI50 (TK-10): 37.4 µM
- GI50 (SW-620): > 100 µM
- GI50 (SNB-19): 27 µM
- GI50 (OVCAR-4): 34.9 µM
- GI50 (786-0): 14.1 µM
- GI50 (T47D): 79.7 µM
- GI50 (EKVX): 27.2 µM
- GI50 (NCI/ADR-RES): 27.6 µM
- GI50 (A498): 19.6 µM
- GI50 (NCI-H460): 4.48 µM
- GI50 (SN12C): 1.95 µM
- GI50 (ACHN): 7.67 µM
- GI50 (SK-MEL-2): 57.5 µM
- GI50 (SK-MEL-28): > 100 µM
- Activity [4]: Active
- GI50 (NCI-H226): 19.8 µM
- GI50 (SR): 3.46 µM
- GI50 (MOLT-4): 4.75 µM
- GI50 (HOP-92): 2.06 µM
- GI50 (IGROV-1): 8.9 µM
- GI50 (RPMI-8226): 37.8 µM
- GI50 (CAKI-1): > 100 µM
- GI50 (UACC-62): 16.4 µM
- GI50 (HT-29): 5.35 µM
- GI50 (K562): 42.1 µM
- GI50 (HOP-62): 17.3 µM
- GI50 (UO-31): 37.6 µM
- GI50 (Hs-578T): 18.5 µM
- GI50 (A549): 16.3 µM
- GI50 (SF-268): 16 µM
- GI50 (OVCAR-3): 28.4 µM
- GI50 (SNB-75): 18.4 µM
- GI50 (SF-539): 16.2 µM
- GI50 (KM12): 4.58 µM
- GI50 (SK-OV-3): 31.6 µM
- GI50 (DU-145): 15.6 µM
- GI50 (PC-3): 8.11 µM
- GI50 [2]: 15.4 µM
- GI50 (OVCAR-8): 28.8 µM
- GI50 (MCF7): 3.95 µM
- GI50 (BT-549): 15.9 µM
- GI50 (SK-MEL-5): 13.1 µM
- GI50 (HCT-116): 19 µM
- GI50 (RXF 393): 14.7 µM
- GI50 (NCI-H522): 22.1 µM
- GI50 (LOX IMVI): 5.38 µM
- GI50 (NCI-H23): 22 µM
- GI50 (COLO 205): 7.98 µM
- GI50 (Malme-3M): 93.1 µM
- GI50 (OVCAR-5): > 100 µM
